From PubChem BioAssay AID248 (DTP/NCI, 2004)
Where “and” joins values, the source holds several entries; their conditions need not be identical. Identical values can stand only once. Inconclusive results and toxic doses are left out. Rule as the data show it: active = T/C of 150% or more; inactive = T/C below 125%. Peptide text beside a SMILES is read from it. * marks the point of attachment. Cbz = O=C(OCc1ccccc1)*

System: L1210 leukemia ip in BDF1 mice, survival T/C
Assay: NCI In Vivo Anticancer Drug Screen. Data for tumor model L1210 Leukemia (intraperitoneal) in B6D2F1 (BDF1) mice
Conditions: endpoint: mean survival time, higher = longer survival
In short: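 Tumor was transplanted into mice, which were then dosed with test compound or vehicle alone. Survival was recorded for each group, and the treated figure was expressed relative to the control figure.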

[1] = dose: 100.0 mg/kg/injection, schedule: Q04DX003 (ip), vehicle: saline
[2] = dose: 200.0 mg/kg/injection, schedule: Q04DX003 (ip), vehicle: saline
[3] = dose: 400.0 mg/kg/injection, schedule: Q04DX003 (ip), vehicle: saline
[4] = dose: 100.0 mg/kg/injection, schedule: Q01DX001 (ip), vehicle: saline
[5] = dose: 100.0 mg/kg/injection, schedule: Q01DX009 (ip), vehicle: saline
[6] = dose: 200.0 mg/kg/injection, schedule: Q01DX001 (ip), vehicle: saline
[7] = dose: 200.0 mg/kg/injection, schedule: Q01DX009 (ip), vehicle: saline
[8] = dose: 400.0 mg/kg/injection, schedule: Q01DX001 (ip), vehicle: saline
[9] = dose: 400.0 mg/kg/injection, schedule: Q01DX009 (ip), vehicle: saline
[10] = dose: 100.0 mg/kg/injection, schedule: Q01DX009 (ip), vehicle: saline with Tween-80
[11] = dose: 100.0 mg/kg/injection, schedule: Q04DX003 (ip), vehicle: Klucel (hydroxypropylcellulose) (HPC)
[12] = dose: 100.0 mg/kg/injection, schedule: Q04DX003 (ip), vehicle: saline with Tween-80
[13] = dose: 200.0 mg/kg/injection, schedule: Q01DX009 (ip), vehicle: saline with Tween-80
[14] = dose: 200.0 mg/kg/injection, schedule: Q04DX003 (ip), vehicle: Klucel (hydroxypropylcellulose) (HPC)
[15] = dose: 200.0 mg/kg/injection, schedule: Q04DX003 (ip), vehicle: saline with Tween-80
[16] = dose: 400.0 mg/kg/injection, schedule: Q04DX003 (ip), vehicle: saline with Tween-80
[17] = dose: 100.0 mg/kg/injection, schedule: Q01DX001 (ip), vehicle: carboxymethylcellulose (CMC)
[18] = dose: 400.0 mg/kg/injection, schedule: Q04DX003 (ip), vehicle: Klucel (hydroxypropylcellulose) (HPC)
[19] = dose: 100.0 mg/kg/injection, schedule: Q04DX002 (ip), vehicle: Klucel (hydroxypropylcellulose) (HPC)
[20] = dose: 200.0 mg/kg/injection, schedule: Q04DX002 (ip), vehicle: Klucel (hydroxypropylcellulose) (HPC)
[21] = dose: 400.0 mg/kg/injection, schedule: Q04DX002 (ip), vehicle: Klucel (hydroxypropylcellulose) (HPC)
[22] = dose: 50.0 mg/kg/injection, schedule: Q01DX001 (ip), vehicle: carboxymethylcellulose (CMC)
[23] = dose: 100.0 mg/kg/injection, schedule: Q01DX001 (ip), vehicle: saline with Tween-80
[24] = dose: 400.0 mg/kg/injection, schedule: Q01DX009 (ip), vehicle: saline with Tween-80

Measured: T/C

c1ccc(-c2nnnn2C23CC4CC(CC(C4)C2)C3)cc1
inactive: [1] 98 % of control | [2] 100 % of control | [3] 98 % of control

CCOC(=O)N[n+]1ccc(C)cc1
inactive: dose: 75.0 mg/kg/injection, schedule: Q01DX001 (ip), vehicle: other 101 % of control | dose: 150.0 mg/kg/injection, schedule: Q01DX001 (ip), vehicle: other 101 % of control | dose: 300.0 mg/kg/injection, schedule: Q01DX001 (ip), vehicle: other 105 % of control

O=S(=O)(/C=C/c1ccc(Cl)cc1)c1ccccc1
inactive: [4] 102 % of control | [5] 91 % of control | [6] 104 % of control | [7] 96 % of control | [8] 102 % of control | [9] 94 % of control

Nc1ccccc1C(=O)c1ccccc1
inactive: dose: 100.0 mg/kg/injection, schedule: Q01DX001 (ip), vehicle: Klucel (hydroxypropylcellulose) (HPC) 94 % of control | [10] 90 % of control | [11] 98 % of control | [12] 93 % of control | dose: 200.0 mg/kg/injection, schedule: Q01DX001 (ip), vehicle: Klucel (hydroxypropylcellulose) (HPC) 93 % of control | [13] 95 % of control | [14] 98 % of control | [15] 95 % of control | [16] 95 % of control

O=C(NNC(=O)C1C2CCCCC21)C1C2CCCCC21 (stereo not drawn)
inactive: dose: 100.0 mg/kg/injection, schedule: Q04DX003 (ip), vehicle: acetone 105 % of control | dose: 200.0 mg/kg/injection, schedule: Q04DX003 (ip), vehicle: acetone 91 % of control | dose: 400.0 mg/kg/injection, schedule: Q04DX003 (ip), vehicle: acetone 97 % of control

C=CCOc1cc2c(ccc1=O)-c1c(cc(OC)c(OC)c1OC)CCC2NC(C)=O (stereo not drawn)
inactive: [17] 104 % of control | dose: 200.0 mg/kg/injection, schedule: Q01DX001 (ip), vehicle: carboxymethylcellulose (CMC) 106 % of control | dose: 400.0 mg/kg/injection, schedule: Q01DX001 (ip), vehicle: carboxymethylcellulose (CMC) 104 % of control

O=[N+]([O-])c1cc(S(=O)(=O)O)c(Nc2ccccc2)cc1NCCO
inactive: [11] 91 % of control | [14] 91 % of control | [18] 90 % of control

Fc1ccc(-c2n[nH]c3c2CCCc2ccccc2-3)cc1
inactive: [12] 113 % of control | [15] 111 % of control | [16] 102 % of control

CC1CCCN(C(=S)[S-])C1.CC1CCCN(C(=S)[S-])C1.[Zn] (stereo not drawn)
inactive: dose: 1.25 mg/kg/injection, schedule: Q01DX009 (ip), vehicle: saline 88 % of control | dose: 2.5 mg/kg/injection, schedule: Q01DX009 (ip), vehicle: saline 86 % of control | dose: 2.5 mg/kg/injection, schedule: Q04DX003 (ip), vehicle: acetone 91 % of control | dose: 5.0 mg/kg/injection, schedule: Q04DX003 (ip), vehicle: acetone 88 % of control | dose: 10.0 mg/kg/injection, schedule: Q01DX001 (ip), vehicle: saline 96 % of control | dose: 10.0 mg/kg/injection, schedule: Q04DX003 (ip), vehicle: acetone 88 % of control | dose: 10.0 mg/kg/injection, schedule: Q04DX003 (ip), vehicle: saline 86 % of control

NC(C(=O)O)c1ccc(F)cc1 (stereo not drawn)
inactive: dose: 50.0 mg/kg/injection, schedule: Q01DX001 (ip), vehicle: saline 104 % of control | [4] 104 % of control | [6] 101 % of control

CCOc1ccc(CCOC(C)=O)cc1
inactive: [19] 97 % of control | [20] 101 % of control | [21] 101 % of control

COC(=O)C(C)(C)O
inactive: [5] 102 % of control | [1] 104 % of control | [7] 102 % of control | [2] 100 % of control | [9] 97 % of control | [3] 104 % of control

O=C(/C=C/c1ccc(Cl)cc1)CCN1CCC2CCC(C2)C1 (stereo not drawn)
inactive: [22] 92 % of control | [17] 95 % of control

CCOP(=O)(OCC)C(=Cc1ccccc1)P(=O)(OCC)OCC
inactive: [23] 106 % of control | [10] 107 % of control | dose: 200.0 mg/kg/injection, schedule: Q01DX001 (ip), vehicle: saline with Tween-80 103 % of control | [13] 105 % of control | dose: 400.0 mg/kg/injection, schedule: Q01DX001 (ip), vehicle: saline with Tween-80 103 % of control | [24] 107 % of control

O=C1C2(c3ccccc3)CCC1(c1ccccc1)C(c1ccccc1)=C2c1ccccc1
inactive: [23] 93 % of control

NC(N)=Nc1ccc(OC(=O)c2ccc(N=C(N)N)cc2)cc1
inactive: dose: 25.0 mg/kg/injection, schedule: Q01DX009 (ip), vehicle: water 96 % of control | dose: 50.0 mg/kg/injection, schedule: Q01DX009 (ip), vehicle: water 96 % of control

CCOC(=O)C1CSCN1 (stereo not drawn)
inactive: [1] 104 % of control | [2] 89 % of control

CC(=O)Nc1ccc2c(c1)C(N(C)C)c1ccccc1-2 (stereo not drawn)
inactive: [22] 101 % of control | [17] 106 % of control

CCOP(=O)(NC1C2CCC(C2)C1C)OCC (stereo not drawn)
inactive: [6] 98 % of control | [8] 102 % of control

O=C(Nc1ccccc1)Oc1ccc(OCc2ccccc2)cc1
inactive: dose: 12.5 mg/kg/injection, schedule: Q04DX003 (ip), vehicle: saline with Tween-80 95 % of control | dose: 25.0 mg/kg/injection, schedule: Q04DX003 (ip), vehicle: saline with Tween-80 93 % of control | dose: 50.0 mg/kg/injection, schedule: Q04DX003 (ip), vehicle: saline with Tween-80 93 % of control

O=C(O)CNC(=O)c1cccc([N+](=O)[O-])c1
inactive: [11] 99 % of control | [14] 101 % of control | [18] 94 % of control

CC(NC(=O)C(C)NC(=O)OCc1ccccc1)C(N)=O (stereo not drawn) (Cbz-Ala-Ala-NH2; configuration not given here)
inactive: [10] 88 % of control | [13] 88 % of control | [24] 88 % of control

CCC(C)(CC)OC(=O)c1ccc([N+](=O)[O-])cc1
inactive: [19] 113 % of control | [20] 106 % of control | [21] 97 % of control

FC(F)(F)c1cccc(NC(=S)NC(Cc2ccccc2)c2ccccc2)c1 (stereo not drawn)
inactive: dose: 100.0 mg/kg/injection, schedule: Q04DX002 (ip), vehicle: gum acacia 104 % of control | dose: 200.0 mg/kg/injection, schedule: Q04DX002 (ip), vehicle: gum acacia 98 % of control | dose: 400.0 mg/kg/injection, schedule: Q04DX002 (ip), vehicle: gum acacia 92 % of control

CC(C)c1ccc(/C(=N\N=C(N)N)C2CC2)cc1
inactive: dose: 15.0 mg/kg/injection, schedule: Q01DX Z (ip), vehicle: carboxymethylcellulose (CMC) 93 % of control | dose: 30.0 mg/kg/injection, schedule: Q01DX Z (ip), vehicle: carboxymethylcellulose (CMC) 95 % of control | dose: 60.0 mg/kg/injection, schedule: Q01DX Z (ip), vehicle: carboxymethylcellulose (CMC) 92 % of control and 93 % of control | dose: 120.0 mg/kg/injection, schedule: Q01DX Z (ip), vehicle: carboxymethylcellulose (CMC) 95 % of control and 96 % of control | dose: 120.0 mg/kg/injection, schedule: Q01DX Z (oral), vehicle: carboxymethylcellulose (CMC) 101 % of control | dose: 240.0 mg/kg/injection, schedule: Q01DX Z (ip), vehicle: carboxymethylcellulose (CMC) 93 % of control | dose: 240.0 mg/kg/injection, schedule: Q01DX Z (oral), vehicle: carboxymethylcellulose (CMC) 110 % of control | dose: 480.0 mg/kg/injection, schedule: Q01DX Z (oral), vehicle: carboxymethylcellulose (CMC) 102 % of control | dose: 960.0 mg/kg/injection, schedule: Q01DX Z (oral), vehicle: carboxymethylcellulose (CMC) 102 % of control

CN(C)C(=O)Oc1c(Cl)cccc1Cl
inactive: dose: 100.0 mg/kg/injection, schedule: Q01DX009 (ip), vehicle: Klucel (hydroxypropylcellulose) (HPC) 92 % of control | [11] 97 % of control | dose: 200.0 mg/kg/injection, schedule: Q01DX009 (ip), vehicle: Klucel (hydroxypropylcellulose) (HPC) 97 % of control | [14] 96 % of control | [18] 89 % of control
